US20220213030A1, “AMINOGUANIDINE HYDRAZONES AS RETROMER STABILIZERS USEFUL FOR TREATING NEUROLOGICAL DISEASES” (OSPEDALE SAN RAFFAELE SRL, priority 2019, published 2022)
“Also recorded” adds a separate entry of the source.

Columns and labels:
[1] = tested on: VPS26; assay: VPS26 MFI in NeuN+ MNs of G93A mice; format: in vivo, mouse; details: 10 mg/kg, day 100
Source text: We next assayed retromer proteins labelling sections of mice sacrificed at day 100 for VPS35 and NeuN. […] Similarly, we observed that VPS26 levels were increased in G93A mice receiving compound 2a (FIG. 11B). We further corroborated our experimental finding observing that compound 2a increased retromer functionality. The cation-independent mannose 6-phosphate receptor (CI-MPR) is a cargo (Arighi et al., 2004) of the retromer complex that is unstable in VPS26 knockout cells (Seaman 2004). We observed a substantial reduction of CI-MPR MFI levels in MNs of vehicle-treated G93A mice when compared with WT litters (FIG. 11C). […]
Fluorescence intensity levels of VPS35, VPS26, Sortilin, CTSD and Ubiquitin were calculated using NHI-Image J software (US National Institutes of Health) according to the following protocol: stacks of confocal images were used to generate the maximal projections (Las-X) and then post-processed by NHI-Image J to crop single NeuN^+ MNs from the ventral horn of the spinal cord. We next performed background (calculated on adjacent slices only receiving secondary antibodies) subtraction for each channel, before applying the NHI-Image J mean filter (with radius 2.0 pixels) to calculate mean NeuN fluorescence levels in individual MN. […] On this selected ROI, we calculated mean fluoresce levels (MFI) of each protein.

[2] = tested on: lysosomes in Neuro2a cells receiving G93A plasmids; assay: Lyso-tracker analysis of lysosomes in G93A-transfected Neuro2a; format: cell-based, mouse; details: 10 μM, 24 hours of starvation
Procedure: We next determined whether a reduction of VPS35 levels in Neuro2a cells could affect lysosomal homeostasis, mimicking what we and others observed in the ALS mouse model (Cheng 2018). We transfected Neuro2a cells with plasmids encoding the Sh56 RNAi to downregulate VPS35. After 24 hours of starvation, we analyzed the lysosomes using the Lyso-tracker. We observed an enlarged and abnormal distribution of lysosomes in cells with VPS35 interference by Sh56 (FIG. 15A-C). […] We asked whether G93A plasmids would also result in similar lysosomal alterations. We transfected Neuro2a cells with plasmids encoding G93A, with or without compound 2a (10 μM). After 24 hours of starvation, we monitored the lysosomes in such cells with the Lyso-tracker.

[3] = tested on: TNFα; assay: LPS-mediated TNFα release in Raw 264.7 cells (ELISA); format: cell-based, murine; details: 10 μM for 1 hour, then LPS 100 ng/ml, 4 hours
Source text: We observed that the molecular structure featuring compound 2a is reminiscent of the patented compound CNI-1493 (N,N′-bis [3,5 -bis [1(aminoiminomethyl) hydrazono]ethyl]phenyl]decanediamide tetrahydrochloride (CAS Reg. No. 164301-51-3)), (FIG. 16A). CNI-1493 inhibits macrophage activation in the animal model of Multiple Sclerosis producing a general amelioration of clinical and pathological outcomes of these mice (Martiney, Rajan et al. 1998). […] CNI-1493 suppresses the production of pro-inflammatory cytokines, belonging to the plethora of detrimental signals that accompany neurodegenerative processes in several disorders. […] We followed experimental procedures published by Bianchi and colleagues that describe the ability of CNI-1493 to blunt the production of this cytokine (Bianchi, Bloom et al. 1996). Cells were incubated with CNI-1493 (10 μM) or with compound 2a (10 μM) for 1 hour and then we added the LPS (100 ng/ml) to media. We next collected supernatants (4 hours after the LPS stimulation) form cells for the evaluation of TNFα levels.
Raw 264.7 cells (10^5/well) were treated with compound 2a, CNI-1493 or vehicle for 1 hour then we applied LPS (100 ng/ml) and supernatants were collected after 4 hours. […] Concentrations of TNFα were calculated according to a standard curve and expressed as nanograms per […]. […]

[4] = tested on: Neuro2a cells transfected with G93A plasmids; assay: Cell survival (CCK8) of Neuro2a transfected with G93A plasmids; format: cell-based, mouse; details: 10 μM
Source text: Pathological alteration of the Golgi apparatus, such as its fragmentation, has been described in many neurodegenerative disorders including ALS. Neuro2a cells transfected with plasmids encoding the G93A mutant form of the SOD1 show alteration of the Golgi transport (Soo, Halloran et al. 2015). Along the same lines, Golgi fragmentation precedes neuromuscular denervation and axon retraction in ALS mice (van Dis, Kuijpers et al. 2014). We transfected Neuro2a cells with plasmids encoding the G93A mutant form of the human SOD1 gene (hereafter G93A) in presence or in absence of compound 2a (10 μM). Cells were harvested after 48 hours, labelled for Golgin-97 and scored for the distribution of trans-Golgi. […] Of note, the fragmentation of Golgi in cells receiving G93A plasmids was not depending on Golgin97 expression levels (FIG. 3A). We speculated that Golgi fragmentation may exacerbate cell death in this cell line. Therefore, we assayed cell survival of Neuro2a transfected with G93A plasmids. Accordingly, cells were transfected with G93A plasmids or with a control plasmid encoding the LacZ. […] Rates of cell survival were similar among controls—i.e. cells receiving LacZ plasmids or compound 2a—when compared with untreated cells. On the other hand, the over-expression of G93A plasmids affected Neuro2a cell survival. […]

N=C(N)NN=Cc1cccc(C=NNC(=N)N)c1 [Compound 2a, 1,3-Bis-amino guanidine phenyl hydrazone]
VPS26 levels (MFI) [1]: increased | enlarged lysosomes (Lyso-tracker-covered areas) [2]: significantly reverted this phenotype | TNFα levels in supernatants [3]: did not show any reduction of TNFα; also recorded: did not inhibit TNFα release | cell survival of G93A-transfected cells [4]: significantly reverted this phenotype | cell survival of cells transfected with G93A and Sh56 (VPS35 RNAi) plasmids ([4]; VPS35 knock down): substantially affected the capability of compound 2a to revert this phenotype
